From patent US7041819B2, “Halogenated calixpyrroles and uses thereof” (Board of Regents, The University of Texas System, priority 1996, dated 2006)

Columns and labels:
[1] = NMR titration with neutral substrates in benzene-d6; format: binding; settings: benzene-d6 at 298 K; 1 at ca. 4 × 10^−3 M
From the text: Substrate Binding in Solution. The binding of neutral molecules to calix[4]pyrrole in the solid state prompted the present inventors to quantify the binding affinities of calix[4]pyrrole to a number of hydrogenbinding neutral molecules. Table 6 illustrates the varying degrees of affinity to which calix[4]pyrrole binds to various hydrogen binding compounds.

[2] = 1H NMR titration in CD2Cl2; settings: for Stability Constant, Chloride / Stability Constants, Chloride: CD2Cl2; for Stability Constants, Chloride: Table 4, tetrabutylammonium salt 0.1 M added to 10 mM receptor
[3] = 1H NMR titration in CD2Cl2; format: binding; settings: tetrabutylammonium salt 0.1M added to 10 mM receptor
[4] = 1H NMR titration in CD2Cl2; format: binding; settings: for Stability Constants, Hydrogen sulfate: Table 4, 0.1 M salt added to 10 mM receptor
[5] = 1H NMR titration in CD2Cl2; settings: for Stability Constant, Fluoride: CD2Cl2
[6] = 1H NMR titration in CD2Cl2; format: binding; settings: tetrabutylammonium salt 0.1M added to 10 mM receptor; remark: listed apart in the source
[7] = 1H NMR titration in CD2Cl2; format: binding; settings: for Stability Constant, Dihydrogen phosphate: tetrabutylammonium salt 0.1M added to 10 mM receptor; for Stability Constant, Dibiphosphate: tetrabutylammonium salt 0.03 M added to 3 mM receptor; for Stability Constants, Dihydrogen phosphate: Table 4, 0.1 M salt added to 10 mM receptor, value of 28 estimated
[8] = Anion binding affinity compared with parent calix[4]pyrrole; settings: 13 and 29 vs compound 2; 14 and 28 vs compound 1
From the text: These types of compounds are useful as HPLC column media since low affinity constants and fast complexation-decomplexation rates generally lead to efficient separation of substrates (see Example 10).
Receptors with an increased anion binding ability such as 14 are useful as anion sequestering agents (e.g., in removal of phosphate and nitrate pollutants from aqueous environments) (see Example 12) or as synthons in reactions to produce further modified calix[4]pyrroles. The present inventors envision this system will be useful as a precursor to a calix[m]pyridino[n]pyrrole or a calix[m]pyridine.
The attachment of electron-donating substituents (such as methoxy) to the β-position (carbon or C-rim of the calixpyrrole) decreases the stability constants of compound 13 relative to compound 2. However attachment of electron-withdrawing substituents (such as bromine) to the carbon-rim has increased the stability constants of compound 14 relative to compound 1.
This increased binding affinity towards anions was not observed for the Substituted amide substituted mesooctamethylcalix[4]pyrrole 28 when compared to the compound 1. A possible reason is that the carboxy ‘tail” is not long enough to swing around and contribute to the binding of the anion.

[9] = 1H and 19F NMR titration in acetonitrile-d3 (0.5% v/v D2O); format: binding; settings: wet acetonitrile
From the text: ^1H and ^19F NMR Titrations. The receptor 44, as a 0.014 M acetonitrile-d3 (0.5% v/v D2O) solution, was titrated by addition of concentrated acetonitrile-d3 (0.5% v/v D2O) solutions of the anions in question (in the form of their tetrabutylammonium salts). In order to account for dilution effects, these anion solutions also contained receptor 44 at its initial concentration. The data were fit to a 1:1 binding profile according to the method of Wilcox (in Frontiers in Supramolecular Organic Chemistry and Photochemistry; Schneider, H.-J., Dürr, H., Eds.; VCH: Weinheim, 1991) using changes in both the NH and β-F pyrrolic resonances in the ^1H and ^19F NMR spectra, respectively, that were assigned to the portion of the total receptor concentration that was considered to be monomeric. Specifically, the change in the position of the peaks initially at 7.24 ppm (^1H NMR) and −177.03 ppm (^19F NMR) were followed. Integration of the two pyrrolic NH resonances (corresponding to calix[4]pyrroles that are “free” and bound to the next receptor molecule) made it possible to estimate the relative concentration of the monomeric fraction in the acetonitrile-d3 (0.5% v/v D2O) solutions being subject to analysis. This estimated monomeric receptor concentration was used to calculate the affinity constants. […] Estimated errors were <20%.
The presence of two different receptor forms in solution precluded the use of Job plots to analyze binding stoichiometries. […] This increased selectivity is summarized in terms of the ratio of the binding constants, R44/43. (Table 9). Separate from the issue of binding to the monomeric form, but complicating the analyses somewhat was the finding that the addition of phosphate and fluoride to wet acetonitrile solutions of 44 led to deaggregation.
^1H and ^19F NMR spectroscopic titrations. Receptor 46, as a 0.014 M acetonitrile-d3 (0.5% v/v D2O) solution, was titrated by addition of concentrated acetonitrile-d3 (0.5% v/v D2O) solutions of the anions in question (in the form of their tetrabutylammonium salts). In order to account for dilution effects, these anion solutions also contained receptor 46 at its initial concentration. The data were fit to a 1:1 binding profile according to the method of Wilcox (Wilcox, C. S. in Frontiers in Supramolecular Organic Chemistry and Photochemistry; Schneider, H.-J., Dürr, H., Eds.; VCH: Weinheim, 1991) using changes in both the NH and β-F pyrrolic resonances in the ^1H and ^19F NMR spectra, respectively.
The binding properties of 46 and 48 were studied.

[10] = Stability under acidic conditions; format: physicochemical; settings: for stability under conditions of acid catalysis at higher temperature: 64° C., within 24 h; for stability under conditions of acid catalysis identical to those of preparation: purified samples, 24 hours, ambient temperature
Method: An advantage of 44 is that in contrast to its simple all-hydrogen analogue 43 it is stable upon exposure to acidic aqueous environments (down to pH 3 or 4 for >24 hours). This makes this system particularly useful for anion recognition, binding, sensing, transport, and extraction applications described in Examples 4, 8, 10, 11, 12, and 15.
A further advantage of the calix[n]pyrroles is that they are stable at a wide range of temperatures, especially at neutral or basic conditions. Under acidic conditions and extreme high or low temperatures, the meso linkage may degrade. A particular attribute of the fluorinated calix[n]pyrroles 44, 46, and 48 is that they are very stable under acidic conditions.
This latter finding is consistent with compounds 46 and 48 being kinetically stable at ambient temperature but not at higher temperatures.

[11] = Binding constant in wet acetonitrile
Method: Binding constants vary with the solvent used for the binding study. Note that the solvent used for the data of Table 2 of Example 10 was dichloromethane whereas the solvent used for the studies herein was acetonitrile. In addition, a binding constant of 12,300 M^−1 was determined for the binding of pyrophosphate to 44 in wet acetonitrile.

[12] = tetrabutylammonium salt 0.1M added to 10 mM receptor
[13] = tetrabutylammonium fluoride trihydrate 0.1M added to 10 mM receptor
[14] = tetrabutylammonium salt 0.03 M added to 3 mM receptor
[15] = tetrabutylammonium salt 0.03 M added to 3 mM receptor, value of 14 estimated

CC1(C)c2ccc([nH]2)C(C)(C)c2ccc([nH]2)C(C)(C)c2ccc([nH]2)C(C)(C)c2ccc1[nH]2 [Compound 1, meso-octamethylcalix[4]pyrrole]
Ka, 1,1,3,3tetramethylurea [1]: 2.2 ± 0.1 M^1 | Ka, 1,2dimethylimidazole [1]: 5.4 ± 0.3 M^1 | Ka, N,N-dimethylacetamide [1]: 9.0 ± 0.9 M^1 | Ka, N,N-dimethylformamide [1]: 11.3 ± 0.8 M^1 | Ka, N-formylglycine ethyl ester [1]: 13.3 ± 1.0 M^1 | Ka, acetone [1]: 2.2 ± 0.2 M^1 | Ka, benzyl alcohol [1]: 9.7 ± 0.7 M^1 | Ka, dimethyl sulfoxide [1]: 16.2 ± 1.1 M^1 | Ka, ethanol [1]: 10.7 ± 0.7 M^1 | Ka, isopropyl alcohol [1]: 7.0 ± 0.4 M^1 | Ka, methanol [1]: 12.7 ± 1.0 M^1 | Ka, secbutanol [1]: 6.2 ± 0.4 M^1 | Stability Constant, Chloride [2, 12]: 350 (±5.5) M^−1 | Stability Constant, Iodide [3]: <10 M⁻¹ | Stability Constant, Hydrogen sulfate [4, 12]: <10 M⁻¹ | Stability Constant, Fluoride [5, 13]: 17170 (±900) M^−1 | Stability Constant, Bromide [6]: 10 (±0.5) M^−1 | Stability Constant, Dihydrogen phosphate [7]: 97 (±3.9) M^−1

c1cc2[nH]c1C1(CCCCC1)c1ccc([nH]1)C1(CCCCC1)c1ccc([nH]1)C1(CCCCC1)c1ccc([nH]1)C21CCCCC1 [Compound 2, meso-Tetraspirocyclohexylcalix[4]pyrrole, reference compound]
Stability Constant, Chloride [2, 12]: 117 (±4.0) M^−1 | Stability Constant, Fluoride [5, 13]: 3600 (±395) M^−1 | Stability Constant, Dihydrogen phosphate [7]: <10 M⁻¹

COc1c2[nH]c(c1OC)C1(CCCCC1)c1[nH]c(c(OC)c1OC)C1(CCCCC1)c1[nH]c(c(OC)c1OC)C1(CCCCC1)c1[nH]c(c(OC)c1OC)C21CCCCC1 [Compound 13, β-Octamethoxy-meso-tetraspirocyclohexylcalix[4]pyrrole]
Stability Constant, Chloride [2, 14]: <10 M⁻¹ | Stability Constant, Fluoride [5, 15]: 1.7 (±0.2) × 10^2 M^−1 | Stability Constant, Dibiphosphate [7]: 6.5 (±0.4) × 10^2 M^−1 | anion binding affinity relative to parent calix[4]pyrrole [8]: decreased

CC1(C)c2[nH]c(c(Br)c2Br)C(C)(C)c2[nH]c(c(Br)c2Br)C(C)(C)c2[nH]c(c(Br)c2Br)C(C)(C)c2[nH]c1c(Br)c2Br [Compound 14, β-Octabromo-meso-octamethylcalix[4]pyrrole]
Stability Constant, Chloride [2, 14]: 4.3 (±0.6) × 10^3 M^−1 | Stability Constant, Fluoride [5, 15]: 2.7 (±0.4) × 10^4b M^−1 | Stability Constant, Dibiphosphate [7]: <10 M⁻¹ | anion binding affinity relative to parent calix[4]pyrrole [8]: increased

CCCCNC(=O)Cc1cc2[nH]c1C(C)(C)c1ccc([nH]1)C(C)(C)c1ccc([nH]1)C(C)(C)c1ccc([nH]1)C2(C)C [Compound 28, Mono-β-butylamidocalix[4]pyrrole]
Stability Constants, Chloride [2]: 405 (±10) M^−1 | Stability Constants, Hydrogen sulfate [4]: <10 M⁻¹ | Stability Constants, Dihydrogen phosphate [7]: 80 (±15)^b M^−1 | anion binding affinity relative to parent calix[4]pyrrole [8]: not observed

CCCCNC(=O)CCCC1(C)c2ccc([nH]2)C2(CCCCC2)c2ccc([nH]2)C2(CCCCC2)c2ccc([nH]2)C2(CCCCC2)c2ccc1[nH]2 (stereo not drawn) [Compound 29, Mono-meso-butylamidocalix[4]pyrrole]
Stability Constants, Chloride [2]: 415(±45) M^−1 | Stability Constants, Hydrogen sulfate [4]: <10 M⁻¹ | Stability Constants, Dihydrogen phosphate [7]: 62 (±6) M^−1 | anion binding affinity relative to parent calix[4]pyrrole [8]: marked increase

CC1(C)c2[nH]c(c(F)c2F)C(C)(C)c2[nH]c(c(F)c2F)C(C)(C)c2[nH]c(c(F)c2F)C(C)(C)c2[nH]c1c(F)c2F [Compound 44, Meso-Octamethyl-β-octafluorocalix[4]pyrrole]
Stability Constant, Chloride [9]: 10700 M⁻¹ | stability under acidic conditions [10]: very stable | Stability Constant, Pyrophosphate [11]: 12300 M⁻¹

CC1(C)c2[nH]c(c(F)c2F)C(C)(C)c2[nH]c(c(F)c2F)C(C)(C)c2[nH]c(c(F)c2F)C(C)(C)c2[nH]c(c(F)c2F)C(C)(C)c2[nH]c1c(F)c2F [Compound 46, β-Decafluoro-meso-decamethylcalix[5]pyrrole]
Stability Constant, Chloride [9]: 41 000 M^−1 | Stability Constant, DMSO [9]: 29 (±3) M^−1 | stability under acidic conditions [10]: very stable | stability under conditions of acid catalysis at higher temperature [10]: nearly complete conversion to 44 | stability under conditions of acid catalysis identical to those of preparation [10]: remained completely intact | Stability Constant, Pyrophosphate [11]: 25 000 M^−1

CC1(C)c2[nH]c(c(F)c2F)C(C)(C)c2[nH]c(c(F)c2F)C(C)(C)c2[nH]c(c(F)c2F)C(C)(C)c2[nH]c(c(F)c2F)C(C)(C)c2[nH]c(c(F)c2F)C(C)(C)c2[nH]c(c(F)c2F)C(C)(C)c2[nH]c(c(F)c2F)C(C)(C)c2[nH]c1c(F)c2F [Compound 48, β-hexadecafluoro-meso-hexadecamethylcalix[8]pyrrole]
Stability Constant, Chloride [9]: 3 600 M^−1 | stability under acidic conditions [10]: very stable | stability under conditions of acid catalysis at higher temperature [10]: nearly complete conversion to 44 | stability under conditions of acid catalysis identical to those of preparation [10]: remained completely intact | Stability Constant, Pyrophosphate [11]: 28 000 M^−1

meso-tetramethylcalix[4]pyrrole-p-tert-butylcalix[4]arene pseudo dimer [Compound 15]
changes in the NMR spectrum on addition of tetrabutylammonium fluoride ([5]; dichloromethane-d2, 10.0 equiv.): no changes

β-diester-meso-octamethylcalix[4]pyrrole [Compound 11]
interaction with chloride anion in solution [2]: interact | interaction with fluoride anion in solution [5]: interact

β-monoester-meso-octamethylcalix[4]pyrrole [Compound 10]
Stability Constant, Chloride [2, 14]: 47 (±1) M^−1 | Stability Constant, Fluoride [5, 15]: 1.1 (±0.2) × 10^3 M^−1
